Results from article PMC7580722, “Design of new disubstituted imidazo[1,2-b]pyridazine derivatives as selective Haspin inhibitors. Synthesis, binding mode and anticancer biological evaluation” (Journal of Enzyme Inhibition and Medicinal Chemistry, 2020).
Where two headings read alike, the source gives them in different places.

Legend:
U-2 OS cells [1] = experiment: Cell cycle analysis by flow cytometry (propidium iodide); conditions: for cells in S phase (% of cell total population): DMSO control 51.9%
Experimental: Figure 6. […] DNA content was measured by flow cytometry and representative profiles are shown. (B) quantification of the proportion of cells in each phase of the cell cycle from the experiment described in (A). Results are mean percentage (n = 3 independent experiments).
Cellular evaluation methods
All media were supplemented with 10% fetal calf serum (unless overwise specified) and 2 mM L-glutamine and cells were cultured
F68-pluronic acid. Cells were fixed for 2h in ice-cold ethanol, then washed twice in PBS containing 0.1% F68-pluronic acid, centrifuged at 200 g and resuspended in a PBS buffer containing 1% Triton, 100 µg/ml RNase A (Thermo Scientific) and 40 µg/ml propidium iodide (Life Technologies). DNA content was determined using a FACS Canto II (BD) and the data were analyzed using FCS Express Cytometry software (De Novo Software).
Twenty thousand events were collected in each run.

HBL100 = experiment: Cell viability, monolayer (2D), MTS assay; type: cell-based; conditions: Homo sapiens, HBL-100, 48 h
SH-SY5Y = experiment: Cell viability, monolayer (2D), MTS assay; type: cell-based; conditions: Homo sapiens, 48 h
HCT116 = experiment: Cell viability, monolayer (2D), MTS assay; type: cell-based; conditions: Homo sapiens, HCT-116, 48 h
HsAurora B = molecular target: T1, HsAurora B (Homo sapiens, UniProt Q96GD4); experiment: Aurora B kinase assay; type: biochemical
T1 construct: purchased SignalChem
Experimental: (§1) Values are IC50 expressed in µM and calculated from dose–response curves (each point on the curves was performed in triplicate). Selectivity indexes (SI; in brackets) are calculated as follows: SI = IC50 kinase X/IC50 Haspin. ND: not determined. *IC50 values obtained using the ADP-Glo methodology (see Experimental section, Supplementary Material). […]
Recombinant protein kinases were expressed and purified from E. coli (HsHaspin kinase domain aa470-798, HsCdk5/p25, RnDYRK1A kinase domain aa1-499, HsPIM1, MmCLK1) or baculovirus/Sf9 cells (HsCdk2/Cyclin A, HsCdk9/Cyclin T). Native SscCK1δ /ε and SscGSK3α/β were purified from pig brain whereas HsPlk1, HsCdk1 and HsAurora B were purchased from ProQinase and SignalChem respectively. Kinase assays were performed in specific buffers and substrates for each kinase tested in the presence of 15 µM [γ-33P] ATP (3,000 Ci/mmol, 10 mCi/ml; PerkinElmer) in a final volume of 30 µl as previously reported 51. After 30 min incubation at 30°C, the reaction mix was spotted onto GE healthcare P81 phosphocellulose paper using a FilterMate Harvester (PerkinElmer), and the filter was extensively washed with a 1% phosphoric acid solution. The wet filter-bound radioactivity was determined in the presence of 20 µl scintillation fluid (GE healthcare) with a TopCount® Scintillation and Luminescence Counter (PerkinElmer). IC50 values were calculated from dose-response curves […]
(§2) Kinase activities using the ADP-Glo methodology (ADP-Glo Kinase Assay; Promega) were assayed according to the assay described in Nguyen et al. 52 and Ibrahim et al. 53. […]

HsCdk2/Cyclin A = molecular target: T2, HsCdk2/Cyclin A (Homo sapiens, UniProt P24941); experiment: CDK2 kinase assay; type: biochemical
T2 construct: made in house; host or cells: baculovirus/Sf9 cells
Experimental: as §1
(§3) A, HsCdk9/Cyclin T). Native SscCK1δ /ε and SscGSK3α/β were purified from pig brain whereas HsPlk1, HsCdk1 and HsAurora B were purchased from ProQinase and SignalChem respectively. Kinase assays were performed in […]
(§4) mCi/ml; PerkinElmer) in a final volume of 30 µl as previously reported 51. After 30 min incubation at 30°C, the reaction mix was spotted onto GE healthcare P81 phosphocellulose paper using a FilterMate Harvester (PerkinElmer), and the filter was extensively washed with a 1% phosphoric acid solution. The wet filter-bound radioactivity was determined in the presence of 20 µl scintillation fluid (GE healthcare) with a TopCount® Scintillation and Luminescence Counter (PerkinElmer). IC50 values were calculated from dose-response curves […]
as §2

HsCDK1 = molecular target: T3, HsCDK1 (Homo sapiens, UniProt P06493); experiment: CDK1 kinase assay; type: biochemical
T3 construct: purchased ProQinase
Experimental: We therefore tested our compounds on two obvious candidates, HsCDK1 and HsPLK1 (Polo-like_kinase 1) both required for mitotic entry[50]
(§5) Values are IC50 expressed in µM and calculated from dose–response curves (each point from the curves was performed in duplicate). NR: not relevant. […]
(§6) Recombinant protein kinases were expressed and purified from E. coli (HsHaspin kinase domain aa470-798, HsCdk5/p25, RnDYRK1A kinase domain aa1-499, HsPIM1, MmCLK1) or baculovirus/Sf9 cells (HsCdk2/Cyclin A, HsCdk9/Cyclin T). Native SscCK1δ /ε and SscGSK3α/β were purified from pig brain whereas HsPlk1, HsCdk1 and HsAurora B were purchased from ProQinase and SignalChem respectively. Kinase assays were performed in specific buffers and substrates for each kinase tested in the presence of 15 µM [γ-33P] ATP (3,000 Ci/mmol, 10 mCi/ml; PerkinElmer) in a final volume of 30 µl as previously reported 51. After 30 min incubation at 30°C, the reaction mix was spotted onto GE healthcare P81 phosphocellulose paper using a FilterMate Harvester (PerkinElmer), and the filter was extensively washed with a 1% phosphoric acid solution. The wet filter-bound radioactivity was determined in the presence of 20 µl scintillation fluid (GE healthcare) with a TopCount® Scintillation and Luminescence Counter (PerkinElmer). IC50 values were calculated from dose-response curves

U-2 OS spheroids = experiment: Spheroid (3D) viability, CellTiter-Glo; type: cell-based, human; conditions: Homo sapiens, U2OS
U-2 OS cells [2] = experiment: Scratch wound cell migration assay (IncuCyte); type: cell-based, human; conditions: 0.6 µM, 0.5% FBS, normalised against DMSO control (100%)
HsHaspin = molecular target: T4, HsHaspin (Homo sapiens, UniProt Q8TF76); experiment: Recombinant Haspin kinase assay ([γ-33P]ATP, 15 µM ATP; some values ADP-Glo); type: biochemical; conditions: average selectivity index over the protein kinases tested vs Haspin
T4 construct: aa470-798; made in house; host or cells: E. coli
T4 sequence (Q8TF76 470-798): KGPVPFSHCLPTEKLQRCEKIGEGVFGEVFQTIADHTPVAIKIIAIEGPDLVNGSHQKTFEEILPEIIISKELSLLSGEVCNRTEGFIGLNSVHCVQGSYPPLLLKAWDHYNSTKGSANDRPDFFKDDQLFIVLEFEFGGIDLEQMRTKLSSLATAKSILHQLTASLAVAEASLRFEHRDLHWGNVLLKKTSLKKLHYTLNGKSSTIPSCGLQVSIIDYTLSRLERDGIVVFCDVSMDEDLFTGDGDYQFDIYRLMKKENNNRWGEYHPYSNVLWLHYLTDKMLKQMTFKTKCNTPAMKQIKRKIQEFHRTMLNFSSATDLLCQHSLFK
Experimental: as §1, §3, §4, §2

Haspin = molecular target: T5, Haspin (Homo sapiens, UniProt Q8TF76); experiment: ATP competition assay on Haspin kinase activity; type: biochemical
T5 construct: aa470-798; made in house; host or cells: E. coli
Experimental: We first conducted an ATP competition assay with compound 12 on Haspin kinase activity (Figure 3(A)). We tested an ATP concentration range from 5 to 240 µM on compound 12 concentrations ranging from 0.001 to 10 µm.
Figure 3. Binding mode of selected compounds with Haspin. (A) ATP competition assay with compound 12. (B) Crystal structure of Haspin with compound 12. […] (C) Superimposition of the binding mode of compounds 12 (yellow carbon atoms) and 21 (grey carbon atoms) in Haspin active site. The three-letter amino acid code and residue number are labelled next to each side chain.

RPE-1 = experiment: Cell viability, monolayer (2D), MTS assay; type: cell-based; conditions: Homo sapiens, 48 h
HsPLK1 = molecular target: T6, HsPLK1 (Homo sapiens, UniProt P53350); experiment: PLK1 kinase assay; type: biochemical; conditions: Table 4
T6 construct: purchased ProQinase
Experimental: . We therefore tested our compounds on two obvious candidates, HsCDK1 and HsPLK1 (Polo-like_kinase 1) both required for mitotic entry[50] (Table 4).
as §5, §6

[3] = tested on: Haspin activity (H3T3ph) in U-2 OS cells; experiment: In-cell Haspin activity, H3T3ph immunofluorescence; type: cell-based, human; conditions: 24 h; for H3T3ph signal remaining in prometaphase cells (% of ctrl): 0.5 µM; for inhibition at 0.05 µM: Homo sapiens, U2OS, read-out: inhibition of cellular Haspin activity
U-2 OS = experiment: Cell viability, monolayer (2D), MTS assay; type: cell-based; conditions: Homo sapiens, U2OS, 48 h
HCT116 spheroids = experiment: Spheroid (3D) viability, CellTiter-Glo; type: cell-based, human; conditions: 5 µM, Figure 4(A)
melanoma cancer lines = tested on: melanoma cancer lines; set-up: method as in PMID 28928884; conditions: alone or in combination with Trametinib; cited from earlier work
HCT-116 cells xenografts = tested on: HCT-116 cells xenografts; set-up: method as in PMID 21804608; conditions: nude mice xenografts of HCT-116 cells; cited from earlier work
HBL100 spheroids = experiment: Spheroid (3D) viability, CellTiter-Glo; type: cell-based, human; conditions: 5 µM, Figure 4(A)
[4] = 48 h, 2 days, Figure 4(B), read-out: U-2 OS spheroid remaining viability

T3 sequence (P06493 whole entry): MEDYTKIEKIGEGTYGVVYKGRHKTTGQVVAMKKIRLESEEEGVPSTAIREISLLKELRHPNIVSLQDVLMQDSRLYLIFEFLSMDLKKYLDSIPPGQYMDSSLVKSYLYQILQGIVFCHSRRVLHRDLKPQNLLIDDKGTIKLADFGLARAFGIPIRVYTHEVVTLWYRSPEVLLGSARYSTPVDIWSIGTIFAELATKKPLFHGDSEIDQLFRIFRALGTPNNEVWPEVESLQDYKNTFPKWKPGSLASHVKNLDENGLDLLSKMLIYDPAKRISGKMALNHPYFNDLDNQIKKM
T3 sequence (P14635 whole entry partner): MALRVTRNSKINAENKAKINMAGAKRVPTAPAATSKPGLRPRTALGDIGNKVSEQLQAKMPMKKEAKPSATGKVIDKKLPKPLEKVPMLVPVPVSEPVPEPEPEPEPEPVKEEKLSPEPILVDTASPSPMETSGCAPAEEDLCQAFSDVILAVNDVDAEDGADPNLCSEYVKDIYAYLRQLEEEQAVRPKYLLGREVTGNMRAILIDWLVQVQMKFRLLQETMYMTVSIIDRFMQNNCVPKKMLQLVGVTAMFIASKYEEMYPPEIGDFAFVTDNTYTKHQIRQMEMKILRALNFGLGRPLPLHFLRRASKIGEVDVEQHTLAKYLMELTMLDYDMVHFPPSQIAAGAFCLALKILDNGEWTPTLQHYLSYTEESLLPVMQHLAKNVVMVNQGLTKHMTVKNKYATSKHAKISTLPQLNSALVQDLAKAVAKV
T6 sequence (P53350 whole entry): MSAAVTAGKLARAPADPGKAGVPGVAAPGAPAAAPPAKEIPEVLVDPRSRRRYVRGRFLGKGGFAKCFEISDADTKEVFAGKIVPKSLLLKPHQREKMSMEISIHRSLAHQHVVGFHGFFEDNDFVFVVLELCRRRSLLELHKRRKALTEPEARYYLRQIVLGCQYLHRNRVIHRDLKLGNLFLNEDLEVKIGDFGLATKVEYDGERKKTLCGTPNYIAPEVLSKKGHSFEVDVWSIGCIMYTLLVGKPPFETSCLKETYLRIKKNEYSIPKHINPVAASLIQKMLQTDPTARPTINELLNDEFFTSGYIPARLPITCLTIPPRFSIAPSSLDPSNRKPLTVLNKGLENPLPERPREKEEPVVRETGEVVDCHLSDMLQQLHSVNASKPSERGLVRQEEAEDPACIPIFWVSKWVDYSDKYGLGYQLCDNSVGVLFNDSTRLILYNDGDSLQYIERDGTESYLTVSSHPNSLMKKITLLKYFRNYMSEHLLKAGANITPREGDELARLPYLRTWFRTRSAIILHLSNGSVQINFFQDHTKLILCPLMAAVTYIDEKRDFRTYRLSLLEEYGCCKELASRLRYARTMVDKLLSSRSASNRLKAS
T1 sequence (Q96GD4 whole entry): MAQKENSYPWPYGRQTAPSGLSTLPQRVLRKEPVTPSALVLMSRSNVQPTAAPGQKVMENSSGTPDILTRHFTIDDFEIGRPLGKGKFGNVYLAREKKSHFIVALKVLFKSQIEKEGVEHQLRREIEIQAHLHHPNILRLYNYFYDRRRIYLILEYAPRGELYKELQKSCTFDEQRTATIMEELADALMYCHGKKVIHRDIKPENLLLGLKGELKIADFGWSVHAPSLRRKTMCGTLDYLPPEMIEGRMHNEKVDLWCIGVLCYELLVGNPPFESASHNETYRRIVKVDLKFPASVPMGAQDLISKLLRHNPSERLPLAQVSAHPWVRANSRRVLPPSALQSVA

For `CC[C@H](CO)Nc1ccc2ncc(-c3ccc4[nH]ncc4c3)n2n1` [Compound 12], the “cells in G2/M phase (% of cell total population)” value (U-2 OS cells [1]; 2.5 µM, 24 h, U-2 OS, DMSO control 12.8%) was 29.9%, the “cells in S phase (% of cell total population)” value (U-2 OS cells [1]; 2.5 µM, 24 h, U-2 OS) was 34.4% and the EC50 (HBL100) was 6.6 µM. For the same compound, the EC50 (SH-SY5Y) was > 10 µM, the EC50 (HCT116) was > 10 µM and the “Aurora B inhibition (in words)” value (HsAurora B) was “did not inhibit Aurora B kinase”. The IC50 (HsCdk2/Cyclin A; read-out: IC50 CDK2) was 0.11 µM, the “SI CDK1/Haspin” value (HsCDK1; SI = IC50 CDK1/IC50 Haspin) was 0.8 and the IC50 (HsCDK1; Table 4, read-out: IC50 HsCDK1) was 0.052 µM. The viability at 5 µM (U-2 OS spheroids; [4]) was 13.1%, the viability at 1 µM (U-2 OS spheroids; 240 h, 1 µM, 10 days, Figure 4(B), read-out: U-2 OS spheroid remaining viability) was 66% and the viability at 2.5 µM (U-2 OS spheroids; 240 h, 2.5 µM, 10 days, Figure 4(B), read-out: U-2 OS spheroid remaining viability) was 50%. The “normalised wound closure after 24 h” value (U-2 OS cells [2]) was 88%, the “average SI” value (HsHaspin) was 24.2 and the IC50 (Haspin; 5 µM ATP, read-out: IC50 Haspin at 5 µM ATP) was 0.006 µM. The IC50 (Haspin; 240 µM ATP, read-out: IC50 Haspin at 240 µM ATP) was 0.95 µM, the EC50 (RPE-1) was 6.8 µM and the IC50 (HsPLK1) was > 10 µM. For the same compound, the “H3T3ph signal remaining in prometaphase cells (% of ctrl)” value [3] was 1.9%, the inhibition at 0.05 µM [3] was > 80% and the EC50 (U-2 OS) was > 10 µM.
In the case of `CCCNc1ccc2ncc(-c3ccc4[nH]ncc4c3)n2n1` [Compound 5, reference compound], the “cells in S phase (% of cell total population)” value (U-2 OS cells [1]; 2.5 µM, 24 h, U-2 OS) is reported as 30.9%, the “cell cycle effect (in words)” value (U-2 OS cells [1]; Figure 2) is reported as “Cell cycle arrest in G2/M” and the HCT116 spheroid viability (HCT116 spheroids; 48 h) is reported as “without any significant effect”. For the same compound, the HCT116 spheroid viability (HCT116 spheroids; 10 days) was “remained mostly unresponsive”, the EC50 (HBL100) was > 10 µM and the EC50 (SH-SY5Y) was > 10 µM. It also gave an EC50 (HCT116) of 9 µM, an IC50 (HsCdk2/Cyclin A) of 0.091 µM and an IC50 (HsCDK1) of 0.029 µM. For the same compound, the “effect on cell viability and mobility of melanoma lines” value (melanoma cancer lines) was “affects also cell viability and mobility of several melanoma cancer lines”, the viability at 5 µM (U-2 OS spheroids; [4]) was 9.7% and the viability at 5 µM (U-2 OS spheroids; 240 h, 10 days, Figure 4(A), read-out: U-2 OS spheroid viability (% of DMSO control)) was 1%. The viability at 5 µM (U-2 OS spheroids; 48 h, Figure 4(A), read-out: U-2 OS spheroid viability (% of DMSO control)) was 49%, the “effect on angiogenesis and tumour growth” value (HCT-116 cells xenografts) was “reduced angiogenesis and tumour growth” and the EC50 (RPE-1) was 3.8 µM. For the same compound, the IC50 (HsPLK1) was > 10 µM, the “HBL-100 spheroid viability (% of DMSO control)” value (HBL100 spheroids; 48 h) was “without any significant effect” and the HBL100 spheroid viability (HBL100 spheroids; 10 days) was “remained mostly unresponsive”. For the same compound, the “H3T3ph signal remaining in prometaphase cells (% of ctrl)” value [3] was 2.5%, the inhibition at 0.05 µM [3] was > 80% and the EC50 (U-2 OS) was 5.1 µM.
